Experiments:
Assay in all cases: relative viability (nuclei count vs DMSO), 5 days (fraction); higher = more cells survive
[1] = compound: O=C(CCCCCCNC(=O)c1cnc(N(c2ccccc2)c2ccccc2)nc1)NO [Ricolinostat] + CC(=O)Nc1cccc(-n2c(=O)n(C3CC3)c(=O)c3c(Nc4ccc(I)cc4F)n(C)c(=O)c(C)c32)c1 [Trametinib] (partner 0.02 µM)
In short: (§1)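 One day after seeding in 1536-well plates, lung cancer cell lines were dosed by pin tool. Dosing was either single-drug or a fixed anchor-drug dose plus five library-drug doses (not always all listed) in √10 steps. After 5 days, nuclei were stained in one fix-and-stain step and counted on 4× images, and relative viability is the nuclei count of treated wells over that of vehicle wells, given as the median of duplicate plates.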

[2] = compound: C1=CC=C(C(=C1)C2=CC=C(C=C2)C3=CSC4=C3C(=C(C(=O)N4)C#N)O)O + CC(C)C[C@H](NC(=O)[C@H](Cc1ccccc1)NC(=O)c1cnccn1)B(O)O [Bortezomib] (partner 0.002 µM)
In short: as §1

[3] = compound: C1=CC=C(C(=C1)C2=CC=C(C=C2)C3=CSC4=C3C(=C(C(=O)N4)C#N)O)O + CCNC(=O)c1noc(-c2cc(C(C)C)c(O)cc2O)c1-c1ccc(CN2CCOCC2)cc1 [Luminespib] (partner 0.01 µM)
In short: as §1

[4] = compound: C1=CC=C(C(=C1)C2=CC=C(C=C2)C3=CSC4=C3C(=C(C(=O)N4)C#N)O)O + CS(=O)(=O)N1CCN(Cc2cc3nc(-c4cccc5[nH]ncc45)nc(N4CCOCC4)c3s2)CC1 [Pictilisib] (partner 1 µM)
In short: as §1

Cell Line | relative viability ([1]; first compound 0.08 µM) | relative viability ([1]; first compound 0.253 µM) | relative viability ([1]; first compound 0.8 µM) | relative viability ([1]; first compound 2.53 µM) | relative viability ([2]; first compound 0.08 µM) | relative viability ([2]; first compound 0.253 µM) | relative viability ([2]; first compound 0.8 µM) | relative viability ([2]; first compound 2.53 µM) | relative viability ([2]; first compound 8 µM) | relative viability ([3]; first compound 0.08 µM) | relative viability ([3]; first compound 0.253 µM) | relative viability ([3]; first compound 0.8 µM) | relative viability ([3]; first compound 2.53 µM) | relative viability ([3]; first compound 8 µM) | relative viability ([4]; first compound 0.08 µM) | relative viability ([4]; first compound 0.253 µM) | relative viability ([4]; first compound 0.8 µM) | relative viability ([4]; first compound 2.53 µM) | relative viability ([4]; first compound 8 µM)
LU99A | 0.555 | 0.559 | 0.475 | 0.599 | 1.26 | 1.03 | 1.43 | 1.14 | 1 | 0.245 | 0.234 | 0.295 | 0.261 | 0.242 | 0.283 | 0.307 | 0.339 | 0.332 | 0.295
UMC-11 | 0.644 | 0.684 | 0.623 | 0.265 | 0.519 | 0.742 | 0.56 | 0.8 | 0.487 | 0.764 | 1.04 | 1.03 | 1.06 | 0.839 | 0.695 | 0.717 | 0.855 | 0.829 | 0.778
NCI-H2405 | 0.591 | 0.682 | 0.666 | 0.82 | 1.02 | 0.991 | 0.977 | 0.954 | 0.988 | 0.723 | 0.855 | 0.675 | 0.604 | 0.567 | 0.379 | 0.439 | 0.443 | 0.436 | 0.295
NCI-H1915 | 0.261 | 0.31 | 0.309 | 0.3 | 0.768 | 0.993 | 1.06 | 1.11 | 0.831 | 0.665 | 0.632 |  | 0.929 | 0.576 | 0.926 | 1.05 | 0.784 | 0.927 | 0.884
NCI-H2228 | 0.642 | 0.534 | 0.482 | 0.45 | 0.973 | 0.922 | 1.07 | 0.959 | 0.73 | 0.14 | 0.163 | 0.105 | 0.135 | 0.186 | 0.326 | 0.4 | 0.479 | 0.365 | 0.344
NCI-H322M | 0.431 | 0.539 | 0.611 | 0.564 | 1.13 | 1.22 | 1.24 | 1.34 | 1.11 | 0.792 | 0.808 | 0.881 | 0.911 | 0.758 | 0.511 | 0.495 | 0.494 | 0.477 | 0.499
LXF-289 | 0.675 | 0.638 | 0.688 | 0.629 | 0.974 | 0.973 | 1 | 1 | 0.986 | 0.764 | 0.651 | 0.8 | 0.73 | 0.632 | 0.677 | 0.831 | 0.781 | 0.81 | 0.779
PC-3 [JPC-3] | 0.662 | 0.641 | 0.713 | 0.633 | 0.762 | 0.817 | 0.758 | 0.95 | 0.899 | 0.564 | 0.774 | 0.787 | 0.679 | 0.74 | 0.69 | 0.888 | 0.665 | 0.685 | 0.652
BEN | 0.816 | 0.905 | 0.828 | 0.796 | 0.578 | 0.789 | 0.944 | 0.892 | 0.676 | 0.354 | 0.345 | 0.305 | 0.71 | 0.331 | 0.547 | 0.597 | 0.437 | 0.547 | 0.428
NCI-H1355 | 0.411 | 0.43 | 0.346 | 0.412 | 0.981 | 1.31 | 1.25 | 1.12 | 1.19 | 0.542 | 0.681 | 0.727 | 0.61 | 0.533 | 0.478 | 0.541 | 0.416 | 0.325 | 0.447
NCI-H441 | 0.259 | 0.521 | 0.629 | 0.697 |  | 0.534 |  | 0.757 | 0.441 | 0.344 | 0.352 | 0.269 | 0.308 | 0.344 | 0.437 | 0.596 | 0.593 | 0.546 | 0.452
EKVX | 0.283 | 0.282 | 0.426 | 0.368 | 0.879 | 0.998 | 1.03 | 1.02 | 0.917 | 1.14 | 0.977 | 0.863 | 0.912 | 0.726 | 0.457 | 0.482 | 0.376 | 0.425 | 0.367
HCC-44 | 1.11 | 1.02 | 1.02 | 1.04 | 0.899 | 0.918 | 0.909 | 0.92 | 0.976 |  | 1.55 | 0.993 | 1.12 | 0.822 | 0.549 | 0.717 | 0.601 | 0.556 | 0.605
A-427 | 0.652 | 0.776 | 0.723 | 0.654 | 0.963 | 1.05 | 1.02 | 1.03 | 1.06 | 0.735 | 1.37 | 0.916 | 1.06 | 0.927 | 0.577 | 0.751 | 0.683 | 0.75 | 0.886

Source: the supplement of paper PMC10307832
